The supplement of paper PMC10307832

Legend:
Assay in all cases: relative viability (nuclei count vs DMSO), 5 days (fraction); higher = more cells survive
[1] = compound: COc1cc(Nc2ncc3c(n2)-c2ccc(Cl)cc2C(c2c(F)cccc2OC)=NC3)ccc1C(=O)O [Alisertib] + CC1(C)CCC(c2ccc(Cl)cc2)=C(CN2CCN(c3ccc(C(=O)NS(=O)(=O)c4ccc(N[C@H](CCN5CCOCC5)CSc5ccccc5)c(S(=O)(=O)C(F)(F)F)c4)cc3)CC2)C1 [Navitoclax] (partner 0.5 µM)
How it was run: (§1)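 Medians of duplicate plates are given as relative viability. That measure is the nuclei count in treated wells divided by the count in vehicle wells. Counts were taken on 4× images of lung cancer cell lines in 1536-well plates, 5 days after pin-tool dosing the day after seeding with one drug alone or a fixed anchor-drug dose plus five library-drug doses (not always all listed) in √10 steps.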

[2] = compound: COc1cc(Nc2ncc3c(n2)-c2ccc(Cl)cc2C(c2c(F)cccc2OC)=NC3)ccc1C(=O)O [Alisertib] + Nc1nc2[nH]cc(CCc3ccc(C(=O)N[C@@H](CCC(=O)O)C(=O)O)cc3)c2c(=O)[nH]1 [Pemetrexed] (partner 0.2 µM)
How it was run: as §1

[3] = compound: COc1cc(Nc2ncc3c(n2)-c2ccc(Cl)cc2C(c2c(F)cccc2OC)=NC3)ccc1C(=O)O [Alisertib] + N=C(N)NC(=N)NCCc1ccccc1 [Phenformin] (partner 250 µM)
How it was run: as §1

[4] = compound: COc1cc(Nc2ncc3c(n2)-c2ccc(Cl)cc2C(c2c(F)cccc2OC)=NC3)ccc1C(=O)O [Alisertib] + CC(=O)Nc1cccc(-n2c(=O)n(C3CC3)c(=O)c3c(Nc4ccc(I)cc4F)n(C)c(=O)c(C)c32)c1 [Trametinib] (partner 0.02 µM)
How it was run: as §1

Cell Line	relative viability ([1]; first compound 0.005 µM)	relative viability ([1]; first compound 0.01581 µM)	relative viability ([1]; first compound 0.05 µM)	relative viability ([1]; first compound 0.1581 µM)	relative viability ([1]; first compound 0.5 µM)	relative viability ([2]; first compound 0.005 µM)	relative viability ([2]; first compound 0.01581 µM)	relative viability ([2]; first compound 0.05 µM)	relative viability ([2]; first compound 0.1581 µM)	relative viability ([2]; first compound 0.5 µM)	relative viability ([3]; first compound 0.005 µM)	relative viability ([3]; first compound 0.01581 µM)	relative viability ([3]; first compound 0.05 µM)	relative viability ([3]; first compound 0.1581 µM)	relative viability ([3]; first compound 0.5 µM)	relative viability ([4]; first compound 0.005 µM)	relative viability ([4]; first compound 0.01581 µM)	relative viability ([4]; first compound 0.05 µM)	relative viability ([4]; first compound 0.1581 µM)	relative viability ([4]; first compound 0.5 µM)
NCI-H2170	0.564	0.55	0.238	0.232	0.178	0.267	0.282	0.236	0.209	0.183	0.388	0.374	0.395	0.276	0.207	0.871	0.842	0.401	0.407	0.17
RERF-LC-KJ	1.06	0.838	0.415	0.178	0.284	0.441	0.466	0.415	0.273	0.216	0.382	0.377	0.246	0.219	0.233	0.872	0.819	0.357	0.301	0.198
NCI-H1993	1.12	1.04	0.463	0.499	0.542	0.614	0.631	0.506	0.539	0.422	0.455	0.495	0.5	0.511	0.449	0.493	0.513	0.442	0.404	0.455
NCI-H1915	0.686	0.577	0.275	0.235	0.13	0.432	0.382	0.325	0.262	0.219	0.309	0.274	0.241	0.229	0.173	0.303	0.303	0.241	0.201	0.138
SK-LU-1	0.841	0.736	0.101	0.139	0.112	0.972	0.722	0.405	0.333	0.267	0.455	0.462	0.22	0.21	0.142	0.484	0.457	0.203	0.275	0.279
LOU-NH91	0.79	0.731	0.551	0.326	0.271	0.428	0.385	0.369	0.349	0.354	0.582	0.668	0.508	0.372	0.32	0.783	0.751	0.663	0.513	0.425
NCI-H2347	0.742	0.695	0.459	0.42	0.329	0.424	0.423	0.416	0.409	0.349	0.346	0.373	0.299	0.411	0.242	0.281	0.273	0.286	0.271	0.237
NCI-H2126	0.819	0.874	0.574	0.276	0.266	0.639	0.641	0.602	0.316	0.276	0.482	0.446	0.413	0.257	0.266	0.563	0.57	0.348	0.281	0.238
HCC-827	1.01	1	0.545	0.324	0.249	0.277	0.264	0.25	0.232	0.173	0.353	0.431	0.39	0.198	0.178	0.547	0.514	0.293	0.26	0.238
NCI-H3122	1.04	0.992	0.664	0.592	0.237	0.184	0.189	0.194	0.186	0.143	0.376	0.371	0.37	0.248	0.142	0.238	0.214	0.198	0.176	0.131
HOP-62	0.966	0.919	0.214	0.139	0.0669	0.282	0.283	0.204	0.171	0.112	0.612	0.553	0.345	0.147	0.143	0.398	0.337	0.274	0.223	0.174
HCC-44	1.04	0.949	0.509	0.412	0.14	0.566	0.601	0.545	0.45	0.394	0.146	0.193	0.134	0.0875	0.0665	0.963	0.931	0.509	0.4	0.32
